{"source": "paper PMC6887723", "about": "“Design and Synthesis of 4-(Heterocyclic Substituted Amino)-1H-Pyrazole-3-Carboxamide Derivatives and Their Potent Activity against Acute Myeloid Leukemia (AML)” (International Journal of Molecular Sciences, 2019)", "key": {"[1]": {"system": "human cell lines of NCI60", "assay": "NCI60 screening, overall", "format": "cell-based", "conditions": "for most cell lines", "source_text": "With these findings, we submitted compound 8t to National Cancer Institute (NCI) to evaluate their antitumor efficacy against 60 human cancer cell lines."}, "[2]": {"system": "MV4-11 cells", "assay": "Cell apoptosis assay (Annexin V-FITC/PI, flow cytometry)", "format": "cell-based, human", "conditions": "MV4-11, 2 μM, 24 h", "procedure": "The apoptosis of MV4-11 cells was determined by Annexin V-FITC/PI assay. Annexin V binds to phosphatidylserine, which is exposed on the cell membrane and is one of the earliest indicators of cellular apoptosis. PI (Propidium Iodide) is used as a DNA stain for both flow cytometry to evaluate cell viability or DNA content in cell cycle analysis and microscopy to visualize the nucleus and other DNA containing organelles. It can be used to differentiate necrotic, apoptotic, and normal cells. Cells (2 × 10^5) were seeded in 6-well plate and were treated with varying concentrations of inhibitor for 24 h. MV4-11 cells were collected and incubated with FITC-conjugated Annexin V (Nanjing keyGen Biotech Company, Nanjing, China). The nuclei were then counterstained with PI. After the dual staining, the cells were screened by a FAC Scan flow cytometer (FACS Calibun, Becton Dickinson, Nanjing, China). The upper left corner of the quadrant represents debris, lower left are live cells, upper right are advanced apoptotic or necrotic cells and lower right are apoptotic cells."}, "[3]": {"system": "MV4-11", "assay": "Cell growth inhibition assay (CellTiter-Glo)", "format": "cell-based", "conditions": "Homo sapiens, 72 h, highest test concentration 1 μM, mean ± SD, three independent experiments", "procedure": "The human AML cell line MV4-11 was purchased from the American Type Culture Collection (ATCC) (Manassas, VA, USA). MV4-11 was cultured in IMDM media (Corning, Crown Bioscience Inc., Taicang, China) with 10% FBS and supplemented with 2% L-glutamine and 1% pen/strep. The MV4-11 cell line was maintained in culture media at 37 °C with 5% CO2. The effects of target compounds on MV4-11 proliferation was performed by Crown Bioscience Inc. Cells were grown in 96-well culture plates (10,000/well). The compounds of various concentrations were added into the plates. Cell proliferation was determined after treatment with compounds for 72 h. Cell viability was measured using the CellTiter-Glo assay (Promega, Crown Bioscience Inc., Taicang, China) according to the manufacturer’s instructions, and luminescence was measured in a multilabel reader (Envision2014, PerkinElmer, Crown Bioscience Inc., Taicang, China). Data were normalized to the control group (DMSO) and represented by the mean of three independent measurements with standard error of <20%. IC50 values were calculated using Prism 5.0 (GraphPad Software, San Diego, CA, USA)."}}}
{"smiles": "O=C(Nc1ccc(N2CCNCC2)cc1)c1n[nH]cc1Nc1ncnc2sc3c(c12)CCC3", "note": "[Compound 8t]", "values": [{"measurement": "GI50", "setting": "[1]", "result": "< 1000", "unit": "nM"}, {"measurement": "melting point", "result": "266 to 268", "unit": "°C"}, {"measurement": "apoptosis rate", "setting": "[2]", "result": 51.36, "unit": "%"}, {"measurement": "IC50", "setting": "[3]", "result": "1.22 ± 0.06", "unit": "nM"}]}
